Measurements reported in patent US20180092908A1, “SMALL MOLECULE OXIDIZERS OF PDI AND THEIR USE” (THE TRUSTEES OF COLUMBIA UNIVERSITY IN THE CITY OF NEW YORK, priority 2015, published 2018).
Like-named read-outs stand apart in the source and are kept apart here.

Key:
[1] = biological target: T1, recombinant catalytic a domain of human PDI A1 (PDIa) (Homo sapiens, UniProt P07237); test: Insulin aggregation assay (PDIa reductase activity); format: biochemical
T1 construct: made in house; host or cells: Escherichia coli BL21-Gold (DE3)
T1 sequence (P07237 with tags, fused parts or gaps): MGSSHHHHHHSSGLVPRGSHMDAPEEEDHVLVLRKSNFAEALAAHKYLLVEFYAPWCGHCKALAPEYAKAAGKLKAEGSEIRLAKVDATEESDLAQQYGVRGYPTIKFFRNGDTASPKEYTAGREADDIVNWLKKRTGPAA

[2] = tested on: striatal medium spiny neurons (MSNs); test: HD brain slice assay (mHTT-Q73 transfected corticostriatal explants); format: cell-based; conditions: rat corticostriatal brain slice explants, YFP + mHTT-Q73, 4 days
Description: Brain slice explants were prepared and transfected as previously described (Reinhart et al., 2011). Briefly, brains were taken from postnatal day 10 CD Sprague-Dawley rat pups and cut into 250 μm coronal slices on a vibratome (Vibratome Co., St. Louis, Mo.). Brain slices containing striatum and cortex were then placed in individual wells of 12-well plates atop culture medium set in 0.5% agarose and maintained at 32° C. under 5% CO2. Co-transfection with YFP and Htt exon-1 containing a 73 polyglutamine repeat was done using a biolistic device (Bio-Rad Helios Gene Gun, Hercules, Calif.). Positive controls were transfected with YFP only or treated with a combination of 50 μM KW-6002 (istradefylline) and 50 μM SP600125. Negative control brain slices were treated with 0.1% DMSO carrier only. Striatal medium spiny neurons (MSNs) expressing YFP were visualized under fluorescence microscopy and identified based on their location within brain slices and their characteristic morphology.
Having elucidated aspects of the biophysical mechanism of action of LOC14 binding to PDI, the next exploration concerned whether LOC14 would be a good candidate for in vivo studies. […] In the absence of LOC14, very few healthy MSNs remained, as assessed by the lack of normal sized and shaped cell bodies, absence of long primary dendrites, and lack of continuous expression of YFP throughout the cell (FIG. 10).

[3] = Mouse microsome stability assay; format: in vitro ADME; conditions: for half-life at 0.5 μM: mouse, liver microsomes, pH 7.4, mouse liver microsomes
Description: At 0, 5, 15, 30 and 45 minute intervals, an aliquot was taken and quenched with acetonitrile (ACN) containing internal standard. No-cofactor controls at 45 minutes were prepared. Following completion of the experimentation, the samples were analyzed by LC-MS/MS. […] C=initial×exp (−k×t). Intrinsic clearance (CLint) was calculated as liver clearance from the half-life using the following equation: CLint=k×(ml incubation/0.5 mg protein)×(52.5 mg protein/g liver). Results were reported as peak area ratios of analyte to internal standard. The intrinsic clearance (CLint) was determined from the first order elimination constant by non-linear regression. The microsome stability assay, plasma stability assay, and plasma protein binding assay were each performed by Alliance Pharma, Inc. (Malvern, Pa.).

[4] = biological target: T1, recombinant catalytic a domain of human PDI A1 (PDIa); test: Insulin aggregation assay (PDIa reductase activity); format: biochemical; remark: listed apart in the source
[5] = mouse liver microsomes, compound 0.5 μM

SMILES: O=C(C1CC1)N1CCN(Cn2sc3ccccc3c2=O)CC1 [LOC14, 2-((4-(cyclopropanecarbonyl)piperazin-1-yl)methyl)benzo[d]isothiazol-3(2H)-one]
- Insulin Assay (either active or inactive) ([1]; Table 5): Active
- PDI's enzymatic activity after dilution of pre-formed complex ([1]; compound 750 μM + PDIa 500 μM, diluted 100-fold): complete recovery
- rescue of MSNs from mutant huntingtin-induced neurodegeneration [2]: rescued MSNs in a concentration-dependent manner
- intrinsic clearance value ([3]; mouse liver microsomes): less than 0.5 ml/min/g
- Elimination rate constant (k) [3, 5]: 0.0016
- Intrinsic Clearance (CLint), mL/min/g liver [3, 5]: 0.17 mL/min/g liver
- half-life at 0.5 μM ([3]; compound 0.5 μM, read-out: Half-life (t1/2)): 7.31 h
- half-life at 0.5 μM ([3]; read-out: half-life): > 1.5 h
- inhibition of PDIa enzymatic activity ([4]; compound 75 μM, PDIa 5 μM): almost completely inhibit
- inhibition of PDI's reduction of insulin without dilution ([4]; compound 750 μM): able to inhibit
